{"source": "patent US11298318B2", "about": "“One-step method for production of ultra-small lipid structures” (FOUNTAIN TECHNOLOGIES INTERNATIONAL, LLC, priority 2015, dated 2022)", "experiment": "Pharmacokinetics of EGCG after oral gavage to rats", "assay_type": "in vivo", "details": "100 mg/kg", "description": "Groups of 10 200-g male rats were administered EGCG by oral gavage, in the form of the USLS prepared as in Example 3 (2.1 ml; 100 mg/kg body weight) or as an identical preparation of EGCG without USLS. Blood samples were collected at 5, 10, 30, 60, 120, and 480 minutes post administration. […] Within 5 minutes after oral administration, the USLS-sequestered compound produced a plasma concentration of 600 ng/ml and a peak plasma concentration of 605 ng/ml at 10 minutes post administration. The EGCG administered without sequestration in USLS produced a peak plasma concentration of only 150 ng/ml at 5 minutes post administration.\nThe pharmacokinetic parameters Cmax (maximum serum concentration), Tmax (time maximum serum concentration is reached), AUC (area under the curve), and Relative Bioavailability were determined from the plasma data and are presented in Table 1, below.", "data": [{"smiles": "O=C(O[C@@H]1Cc2c(O)cc(O)cc2O[C@@H]1c1cc(O)c(O)c(O)c1)c1cc(O)c(O)c(O)c1", "note": "[EGCG control, Epigallocatechin gallate]", "values": [{"measurement": "time of peak plasma concentration post administration", "result": 5, "unit": "min"}, {"measurement": "peak plasma concentration of EGCG", "setting": "FIG. 4", "result": 150, "unit": "ng/mL"}, {"measurement": "AUC (0-240 min)", "setting": "Table 1", "result": "14,261"}, {"measurement": "Cmax (maximum serum concentration)", "setting": "Table 1", "result": 116.57}, {"measurement": "Tmax (time maximum serum concentration is reached)", "setting": "Table 1", "result": 5}]}]}
